The melting point is the temperature, or range, at which the solid turns liquid.

In the case of `Cc1c(NC(=O)c2ccccc2[N+](=O)[O-])cccc1C(F)(F)F`, the melting point was in the range of 188 to 189 °C.

`C[C@@H](O[C@H]1CCCN(Cc2n[nH]c(=O)[nH]2)[C@H]1c1ccccc1)c1cccc(Br)c1` came in with a melting point of 165 °C.

`O=C(Nc1ccc(Cl)c(Cl)c1)NS(=O)(=O)c1ccc2c(c1)CCC2` came in with a melting point of 156 to 158 °C.

In turn, `NCCc1ccc(CCNS(=O)(=O)c2ccc(Cl)cc2)cc1` returned a melting point of 90 to 93 °C.

Take `COc1cccc(NC(=O)NC2N=C(c3ccccc3F)c3cccc(C)c3N(CC(=O)N3CC4CCC(CC4)C3)C2=O)c1` (centres undefined): the melting point is 241 to 243 °C.

In the case of `Clc1ccc(C(=Cc2ccc(Cl)cc2Cl)CBr)cc1`, the melting point came to 128 °C.

In turn, `CNC(=O)C1CC(=O)N(Cc2ccccc2)C1` (centres undefined) displayed a melting point of 82.5 to 83 °C.

Consider `ON=Cc1ccccc1OCc1ccc(Cl)cc1`, for which the melting point was 122 to 124 °C.

For `CCn1ncc2c(NCC3CCCCC3)c3cc(C(=O)O)ccc3nc21`, the melting point is 240 °C.

On to `CCCCC[C@H]1CC[C@H](CCCOc2ccc(O)cc2)CC1`, for which the melting point was in the range of 100 to 101 °C.

Compound `COc1ccc(Sc2cnc(N)s2)cc1` displayed a melting point of 119 to 120 °C.

`COc1ccnc(CCc2nc3c(C)ccnc3[nH]2)c1` showed a melting point of 143 to 144 °C.

In turn, `O=[N+]([O-])c1ccc2nc(CO)[nH]c2c1` registered a melting point of 157 to 162 °C.

For the compound `CN1C(c2ccc(Br)cc2)C2C(=O)N(Cc3ccc4c(c3)OCO4)C(O)C2C1(C)C` (centres undefined), the melting point was in the range of 158 to 159 °C.

On to `CN(C)c1ccc(C2=CCC(C)(C)c3cc(C(O)C#Cc4ccc(C(=O)O)cc4)ccc32)cc1` (centres undefined), for which the melting point came out at 91 °C.

With `CCCCN(CC)c1cc(C)nc(Sc2c(C)cc(C)cc2C)c1`, the melting point is 110 to 112 °C.

For the compound `O=C1CCCN1C(=O)c1cccnc1`, the melting point lay in the range of 98 to 100 °C.

`Cc1ccc(-c2nnc(N3CCN(c4ccc(O)cc4)CC3)c3ccccc23)cc1` came in with a melting point of 265 to 266 °C.

The compound `COc1ccc(CCN(CC(C)C)S(=O)(=O)N[C@@H](Cc2ccc(NC(=O)c3c(Cl)cncc3Cl)cc2)C(=O)O)cc1OC` registered a melting point of 192 °C.

In turn, `CN1C(=O)Cc2cc(F)ccc21` yielded a melting point of 128 to 130 °C.

As for `Brc1cccc(P(c2ccccc2)c2ccccc2)n1`, the melting point turned out to be 81 °C.

`CCn1ccnc1CC1COc2ccccc2O1` (centres undefined) showed a melting point of 77 to 78 °C.

As for `CCOC(=O)c1c(C(F)(F)F)nc(C(F)F)c(C=O)c1CC`, the melting point was 63.5 to 65 °C.

With `CCCCN(C)C(=O)c1cccc(-c2nc(=O)c3ccccc3s2)n1`, the melting point was 80 to 81.6 °C.

With `CON=C(C(=O)O)c1cccc(OCc2ccccc2Cl)c1OCc1ccccc1Cl`, the melting point was 97 to 99 °C.

Regarding `Oc1ccc(CCc2cccc(O)c2)cc1`, the melting point was found to be 108 °C.

For `NC(=O)CCCCCCCCCCC(=O)O`, the melting point fell in the range of 129 to 131 °C.

Turning to `CCCCCCCCCCCCCCC(O)(CCCCCC(=O)O)CCCCCC(=O)O`, the melting point was 79 to 80 °C.

With `CS(=O)(=O)c1ccc(-c2ccc(C=O)n2-c2ccc(F)cc2)cc1`, the melting point fell in the range of 111 to 112 °C.

`CCCCCc1cc2c(nc(O)n2CC(C)(C)O)c(N)n1` registered a melting point of 240 to 243 °C.

In turn, `NCCN1C(=O)CN(c2ccc(Cl)cc2)C1=O` returned a melting point of 142 to 145 °C.

The compound `CN(C)CCCn1c2c(c3ccccc31)CCSCCC2` came in with a melting point of 70 to 71 °C.

The compound `O=C(CCCN1CCC(c2ccccc2Cc2ccccc2)C1)c1ccc(F)cc1` (centres undefined) showed a melting point of 126 to 128 °C.

Turning to `N#Cc1ccc(Nc2nc(Cc3c(Cl)cccc3Cl)cc(NC(=O)CN3CCCCC3)n2)cc1`, the melting point was 175 to 180 °C.

In turn, `c1coc(Cn2c(NC3CCNCC3)nc3cccnc32)c1` showed a melting point of 159 °C.

`CCCc1nn(CC)c2c(=S)[nH]c(-c3ccccc3OCC)nc12` came in with a melting point of 130 to 131 °C.

Regarding `O=C1c2ccccc2CN1CCCOc1ccncc1`, the melting point was in the range of 70 to 71 °C.

On to `CCCNC(=O)CSc1nc(-c2ccccc2)c(-c2ccccc2)[nH]1`, for which the melting point lay in the range of 183 to 185 °C.

As to `C(=NC(c1ccccc1)c1ccccc1)c1ccccc1`, the melting point was in the range of 99 to 101 °C.

`O=Cc1ccc2ccn(C(c3ccccc3)c3cccc(C=Cc4ccc5ccccc5n4)c3)c2c1` (centres undefined) had a melting point of 75 °C.

In turn, `NC(=O)c1cn(-c2ccc(F)cc2)c2cc(Cl)ccc2c1=O` showed a melting point of 294 to 296 °C.

Turning to `C[Si](C)(C)C#Cc1ccc(C=O)cc1`, the melting point was in the range of 66 to 67 °C.

Turning to `COc1cc2c(cc1OCc1ccccc1)CCCCC2=O`, the melting point is 95 to 96 °C.

Consider `CC1(C)C=Cc2cc(-c3nnnn3CCN3C(=O)c4ccccc4C3=O)ccc2O1`, for which the melting point fell in the range of 178 to 182 °C.

Regarding `COC(=O)C1(NC(=O)Cc2cc(-c3ccc(Cl)cc3)ccc2Cl)CCC(F)(F)CC1`, the melting point was 146 to 147 °C.

As to `CCCCc1nn2cc(C)nc2n1Cc1ccc(-c2ccccc2-c2nnn[nH]2)cc1`, the melting point is 124 to 125 °C.

Compound `Cc1sc(S(N)(=O)=O)cc1[N+](=O)[O-]` registered a melting point of 120 °C.

In turn, `CC1(C)CC(N2CCN(c3ccccc3)C2=O)c2cc(C#N)ccc2O1` (centres undefined) showed a melting point of 166 to 168 °C.

In turn, `CCCN(c1ccncc1Cl)n1cc(C)c2ccccc21` came in with a melting point of 68 to 70 °C.

Compound `CNCc1ccc([C@H]2CC[C@@H](N(C)C(=O)c3ccc(Cl)cc3)CC2)cc1` had a melting point of 110 to 112 °C.

`CCOC(=O)c1cc(C=O)ccc1O` returned a melting point of 67 to 69 °C.

Take `Cc1c(O[Si](C)(C)C(C)(C)C)cc(N2C(=O)c3ccccc3C2=O)cc1C(=O)OCc1ccc([N+](=O)[O-])cc1`: the melting point was in the range of 125 to 127 °C.

In the case of `COC(=O)C1=C(C)NC(C)=C(C(=O)OCC(C)=O)C1c1cccc([N+](=O)[O-])c1` (centres undefined), the melting point was determined as 139 °C.

With `COc1cc(C2(O)NC(=O)c3cc(OCc4ccccc4)ccc32)cc(OC)c1OC` (centres undefined), the melting point lay within 187 to 189 °C.

`CCCc1ccc(S(=O)(=O)Nc2ccc3nc(C)ccc3c2)cc1` gave a melting point of 174 °C.

As for `O=C(O)c1cccnc1Oc1cccc(Cl)c1`, the melting point fell in the range of 161 to 164 °C.

With `c1ccc(COc2cccc3c2OCO3)cc1`, the melting point is 62 to 63 °C.

In the case of `CCCCCCCCCCCCc1cn(C(C(=O)Nc2c(OC)cc(OC)cc2OC)c2ccccc2)cn1` (centres undefined), the melting point lay in the range of 95 to 102 °C.

`Cc1cc(C)c2ncc(N)c(-c3ccccc3Cl)c2c1` had a melting point of 152 to 154 °C.

Compound `COC(=O)C[C@H]1S[C@H](c2cccc(OC)c2OC)c2cc(Cl)ccc2N(CC(C)(C)C)C1=O` yielded a melting point of 170 to 171 °C.

Turning to `CS(=O)(=O)OCCN(CCCl)c1ccc([N+](=O)[O-])c(C(=O)NCCCO)c1[N+](=O)[O-]`, the melting point was 104 to 109 °C.

For the compound `CC(c1ccc(CCn2c(=O)[nH]c3cc(-c4ccc(F)cc4)sc3c2=O)cc1)N1CCCC1` (centres undefined), the melting point is 260 to 264 °C.

Take `COc1ccc(C=CC(=O)c2ccc(OCC3CO3)cc2)cc1` (centres undefined): the melting point lay within 85 to 87 °C.

`CNc1nc2c(N)ncnc2n1C1OC(CO)C(O)C1O` (centres undefined) gave a melting point of more than 250 °C.

`O=C(O)C(=O)N1CCc2cc(S(=O)(=O)N3CCN(c4cccc(Cl)c4)CC3)ccc21`: the melting point was in the range of 219 to 220 °C.

Regarding `CCOC(=O)C(F)(F)C(O)(CC)c1cc2n(c(=O)c1CO)Cc1cc3ccccc3nc1-2` (centres undefined), the melting point was 208 to 209 °C.

As for `Cc1ccc(-c2cncc(OC3SCC(O)C(O)C3O)c2)c(Cl)c1` (centres undefined), the melting point is 207 °C.

`CCOc1ccc(-c2nc(-c3ccc(OS(=O)(=O)C(F)(F)F)c(C(=O)OC)c3)cs2)cc1OCC` had a melting point of 112 to 113 °C.

On to `O=C1OCc2cc([N+](=O)[O-])c(Oc3ccc(F)cc3F)cc21`, for which the melting point fell in the range of 164 to 166 °C.

Consider `ICCCC1(c2ccccc2)OCCO1`, for which the melting point was 71 to 73 °C.

The compound `CC(=O)n1cc(O)c2cc(Cl)ccc21` had a melting point of 186 to 188 °C.

`COc1ccc2c(c1)CCC1CCN(C)C(=O)C(CC3(C)OCCO3)=C21` (centres undefined) came in with a melting point of 112 to 115 °C.

As for `CCOC(=O)C1=C(C)N=C(SCc2ccc(OC)cc2)N(C(=O)c2ccc([N+](=O)[O-])cc2)C1c1cccc([N+](=O)[O-])c1` (centres undefined), the melting point lay within 121 to 123 °C.

For `CCC(CCOc1ccc(-c2ccc(C(=O)O)cc2)cc1-c1ccc2c(c1)C(C)(C)CCC2(C)C)NC1CC1` (centres undefined), the melting point was 161 °C.

As for `CCOC(=O)Nc1nc(Cc2ccccc2)c(C(=O)c2sc(NC(=O)OCC)nc2Cc2ccccc2)s1`, the melting point lay in the range of 145 to 146 °C.

`Cc1c(Br)cccc1N1Cc2ccc(C(C)(C)C)cc2C1=O` gave a melting point of 120 to 122 °C.

For `O=[N+]([O-])c1ccc2oc(CO)cc2c1`, the melting point was in the range of 115 to 116 °C.

Take `Cc1ccc(NS(=O)(=O)c2ccc(N3CCNC3=O)cc2)cc1C`: the melting point lay in the range of 206 to 208 °C.

As to `CN(C)c1ccc(C2OC(C)(C)N=C2c2ccccc2Cl)cc1` (centres undefined), the melting point is 72.5 to 73.5 °C.

As to `N#CSCOc1cc(Cl)c(Cl)cc1Cl`, the melting point fell in the range of 103 to 105 °C.

Regarding `O=C(OCc1ccccc1)c1cc2c3ccccc3n(Cc3ccccc3)c2cn1`, the melting point fell in the range of 169 to 170 °C.

Turning to `Cn1nc(C(=O)O)c(=O)n(-c2ccccc2)c1=O`, the melting point was 195 to 198 °C.

As to `O=C(c1ccccc1)C1CCCS1(=O)=O` (centres undefined), the melting point was 90 to 94 °C.

As for `COc1ccc(C=C2c3ccccc3C(=NOCC(=O)N3CCC(CO[N+](=O)[O-])CC3)c3ccccc32)cc1O`, the melting point was 143 to 145 °C.

On to `CNn1cccc1C(=O)c1ccccc1Cl`, for which the melting point lay within 56 to 58 °C.

As to `C#CCCOc1ccc(/C=C/C(=O)Nc2ccccc2C(=O)O)cc1OC`, the melting point lay within 178 to 180 °C.

`CC(=O)C1(O)CCC2C3C=C(Cl)C4=CC(=O)OCC4(C)C3CCC21C` (centres undefined): the melting point is 218 to 221 °C.

In turn, `c1ccc2nc(CCN3CCc4[nH]c5ccccc5c4C3)ccc2c1` registered a melting point of 195 to 197 °C.

In turn, `C=CCONC(=O)c1nc(Cl)cc(N)c1Cl` showed a melting point of 161 to 163 °C.

The record behind these values is a melting point compilation (Tetko et al.; mined from patent text by program, amines drawn as free bases though some values may be those of a salt).
